# Patent US12303509B2, “Compounds for the treatment of BRAF-associated diseases and disorders” (Pfizer Inc., priority 2020, dated 2025)
# pIC50: −log10 of the molar value. Counter-ions that a name gives are not always drawn.
# Legend:
# BCRP = BCRP (Homo sapiens (Human), UniProt Q9UNQ0); assay: BCRP MDCKII permeability assay: efflux ratio; type: in vitro ADME; conditions: dog
# [1] = MDR1 LLC-PK1 and BCRP MDCKII permeability assay: permeability coefficient (Papp); type: in vitro ADME
# Excerpt: (§1) Final organic concentration in the assay was 1%.
# A375 cells = assay: Cellular phospho-ERK inhibition assay in A375 cells; type: cell-based; conditions: Homo sapiens, A-375, A375 cells (head prints A357), 2 hours treatment, read-out: A357 cell IC50
# Experimental: A375 and H1755 cells were obtained from the American Type Culture Collection (ATCC, Rockville, MD). A375 cells were maintained in DMEM growth medium containing 10% FBS. H1755 cells were maintained in RPMI growth medium containing 10% FBS.
# Cells were harvested according to standard protocols, counted and plated onto flat-bottom, 96-well tissue culture plates (Costar #3599) at 2.5×10^4 cells/well for A375 cells and 1.5×10^4 cells/well for H1755 cells in 100 μL/well of growth medium containing 10% FBS. After an overnight incubation at 37° C. with 5% CO2 cells were treated for 2 hours at 37° C., 5% CO2 with compounds prepared as a 9-point, 1:3.33 fold dilution series with final compound concentrations ranging from 66 pM-10 μM and a constant DMSO concentration of 0.25%. Control wells contained either 0.25% DMSO alone (uninhibited control) or 10 μM binimetinib (complete inhibition control). The levels of phosphorylated ERK are determined using an In Cell Western protocol: following compound incubation, growth medium was discarded, and cells were fixed with 0.4% formaldehyde in PBS for 20 minutes at room temperature. Cells were permeabilized with 100% methanol for 10 minutes at room temperature. Plates were washed with PBS containing 0.05% Tween-20 and blocked for 1 hour at room temperature with LI-COR Blocking Buffer (LI-COR Biosciences; Cat #927-40000). Plates were then incubated for 2 hours at room temperature with 50 μL of a 1:400 dilution of anti-phospho-ERK1/2 (Thr202/Tyr204) (Cell Signaling; Cat #9101) and a 1:1000 dilution of anti-GAPDH (Millipore; Cat #MAB374) in LI-COR blocking buffer containing 0.05% Tween-20. Plates were washed with PBS containing […] Tween-20 then incubated at room temperature for 1 hour with 50 μL of a 1:1000 dilution of anti-rabbit AlexaFluor 680 (Life Technologies; Cat #A21109) and a 1:1000 dilution of anti-mouse IRDye 800CW (LI-COR; Cat #926-32210) in LI-COR blocking buffer containing 0.05% Tween-20. Plates were analyzed by reading on an Odyssey CLx infrared scanner. For each well, the phospho-ERK signal was normalized to the GAPDH signal and converted to POC using the following equation:
# [formula] • Where: • Xmax Average Uninhibited Controls • Xmin Average Complete Inhibition Controls IC50 values were then calculated using a 4-parameter fit in XLfit software and are provided in Table A1.
# P-gp (MDR1) = P-gp (MDR1) (Homo sapiens (Human), UniProt P08183); assay: MDR1 LLC-PK1 permeability assay: efflux ratio; type: in vitro ADME; conditions: pig
# Excerpt: as §1
# [2] = target: full-length FLAG-tagged B-Raf(V600E) (Homo sapiens (Human), UniProt P15056, V600E); assay: BRAF V600E enzyme assay (TR-FRET competitive displacement); type: binding; conditions: averaged IC50; TR-FRET tracer displacement, 60 min
# Experimental: A competitive displacement assay was configured for B-Raf that monitors the amount of a fluorescently-tagged “tracer” bound to B-Raf via TR-FRET from an anti-tag Eu-labeled antibody also bound to B-Raf. For full-length FLAG-tagged B-Raf(V600E), the assay mixtures consisted of 25 mM K^+HEPES, pH 7.4, 10 mM MgCl2, 0.01% Triton X-100, 1 mM DTT, 2% DMSO (from compound), 50 nM Tracer 1710 (ThermoFisher, PR9176A), 0.5 nM Eu anti-FLAG (M2)-cryptate Ab (Cisbio, 61FG2KLB) and 5 nM full-length, N-terminally FLAG-tagged B-Raf(V600E) (Origene Technologies, TP700031. Compounds were typically diluted in DMSO across an 11-point dosing range created using a 3-fold serial dilution protocol at a top dose of 10 μM. The assay was run in 384-well, polystyrene, low-volume, non-treated, white microtiter plates (Costar 4512) in a final volume of 12 μL. Low control wells included 1 μM of a potent B-Raf inhibitor as a control. The assays were incubated at ambient temperature (typically 22° C.) for 60 min and then read on a PerkinElmer EnVision microplate reader using standard TRF settings (λEx=320 nm, λEm=615 & 665 nm). The ratioed counts (665 nm/615 nm) were converted to percent of control (POC) using the following equation:
# [formula] • where: • Xmax Average Uninhibited Controls • Xmin Average Background
# A 4-parameter logistic model was the fit to the POC data for each compound. From that fit, the IC50 was estimated and is defined as the concentration of compound at which the best-fit curve crosses 50 POC.
# Chain of P-gp (MDR1) (P08183 whole entry, species assumed): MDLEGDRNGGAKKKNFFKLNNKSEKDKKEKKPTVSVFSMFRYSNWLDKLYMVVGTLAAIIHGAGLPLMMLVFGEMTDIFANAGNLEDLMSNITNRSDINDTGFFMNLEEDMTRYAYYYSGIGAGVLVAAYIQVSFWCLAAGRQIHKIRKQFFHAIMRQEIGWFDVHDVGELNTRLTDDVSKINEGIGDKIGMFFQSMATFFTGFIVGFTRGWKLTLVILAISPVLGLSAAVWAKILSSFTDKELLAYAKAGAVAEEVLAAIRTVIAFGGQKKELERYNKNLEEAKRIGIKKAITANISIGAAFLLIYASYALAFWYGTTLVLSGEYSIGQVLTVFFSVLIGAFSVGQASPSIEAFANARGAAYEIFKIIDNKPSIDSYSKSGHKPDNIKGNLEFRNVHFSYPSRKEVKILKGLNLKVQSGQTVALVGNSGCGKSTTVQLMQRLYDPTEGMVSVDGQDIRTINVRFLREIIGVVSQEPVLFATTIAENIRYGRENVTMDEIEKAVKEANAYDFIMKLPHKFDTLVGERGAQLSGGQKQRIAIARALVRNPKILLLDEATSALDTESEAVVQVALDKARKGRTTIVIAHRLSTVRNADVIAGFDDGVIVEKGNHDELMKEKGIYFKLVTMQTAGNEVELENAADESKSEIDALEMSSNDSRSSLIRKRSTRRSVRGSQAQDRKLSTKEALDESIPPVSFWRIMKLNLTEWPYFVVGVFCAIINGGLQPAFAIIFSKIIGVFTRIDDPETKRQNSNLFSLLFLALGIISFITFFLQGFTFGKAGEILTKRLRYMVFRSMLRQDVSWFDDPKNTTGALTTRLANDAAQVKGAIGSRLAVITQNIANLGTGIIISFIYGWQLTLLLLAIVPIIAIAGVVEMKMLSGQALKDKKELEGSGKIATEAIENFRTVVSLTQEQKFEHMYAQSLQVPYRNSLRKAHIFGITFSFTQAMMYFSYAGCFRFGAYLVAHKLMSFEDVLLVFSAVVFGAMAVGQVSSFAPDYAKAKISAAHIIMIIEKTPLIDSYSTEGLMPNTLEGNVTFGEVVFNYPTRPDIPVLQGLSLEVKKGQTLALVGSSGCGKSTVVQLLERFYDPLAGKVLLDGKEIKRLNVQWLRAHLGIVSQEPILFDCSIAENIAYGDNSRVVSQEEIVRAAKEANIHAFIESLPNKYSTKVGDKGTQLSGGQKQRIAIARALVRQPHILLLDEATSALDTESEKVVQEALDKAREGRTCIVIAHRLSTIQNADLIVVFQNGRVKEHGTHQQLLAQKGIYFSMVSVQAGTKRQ
# Chain of BCRP (Q9UNQ0 whole entry): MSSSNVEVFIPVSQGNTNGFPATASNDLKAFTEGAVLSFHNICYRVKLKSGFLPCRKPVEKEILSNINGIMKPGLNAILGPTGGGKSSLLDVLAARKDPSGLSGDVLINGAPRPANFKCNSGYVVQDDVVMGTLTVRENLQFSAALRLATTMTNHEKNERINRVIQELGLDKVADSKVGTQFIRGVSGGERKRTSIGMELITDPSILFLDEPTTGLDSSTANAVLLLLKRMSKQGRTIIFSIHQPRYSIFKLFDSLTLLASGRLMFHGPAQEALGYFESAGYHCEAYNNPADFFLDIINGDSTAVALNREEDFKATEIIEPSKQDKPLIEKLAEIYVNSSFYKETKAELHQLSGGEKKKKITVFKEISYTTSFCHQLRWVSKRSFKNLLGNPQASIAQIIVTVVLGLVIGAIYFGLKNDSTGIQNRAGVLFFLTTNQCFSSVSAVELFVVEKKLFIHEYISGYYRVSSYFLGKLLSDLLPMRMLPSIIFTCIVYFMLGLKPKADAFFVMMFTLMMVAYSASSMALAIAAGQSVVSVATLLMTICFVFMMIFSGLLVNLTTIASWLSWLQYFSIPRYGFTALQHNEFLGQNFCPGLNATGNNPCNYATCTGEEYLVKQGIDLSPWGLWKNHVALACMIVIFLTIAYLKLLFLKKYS
# Chain of full-length FLAG-tagged B-Raf(V600E) (P15056 whole entry V600E): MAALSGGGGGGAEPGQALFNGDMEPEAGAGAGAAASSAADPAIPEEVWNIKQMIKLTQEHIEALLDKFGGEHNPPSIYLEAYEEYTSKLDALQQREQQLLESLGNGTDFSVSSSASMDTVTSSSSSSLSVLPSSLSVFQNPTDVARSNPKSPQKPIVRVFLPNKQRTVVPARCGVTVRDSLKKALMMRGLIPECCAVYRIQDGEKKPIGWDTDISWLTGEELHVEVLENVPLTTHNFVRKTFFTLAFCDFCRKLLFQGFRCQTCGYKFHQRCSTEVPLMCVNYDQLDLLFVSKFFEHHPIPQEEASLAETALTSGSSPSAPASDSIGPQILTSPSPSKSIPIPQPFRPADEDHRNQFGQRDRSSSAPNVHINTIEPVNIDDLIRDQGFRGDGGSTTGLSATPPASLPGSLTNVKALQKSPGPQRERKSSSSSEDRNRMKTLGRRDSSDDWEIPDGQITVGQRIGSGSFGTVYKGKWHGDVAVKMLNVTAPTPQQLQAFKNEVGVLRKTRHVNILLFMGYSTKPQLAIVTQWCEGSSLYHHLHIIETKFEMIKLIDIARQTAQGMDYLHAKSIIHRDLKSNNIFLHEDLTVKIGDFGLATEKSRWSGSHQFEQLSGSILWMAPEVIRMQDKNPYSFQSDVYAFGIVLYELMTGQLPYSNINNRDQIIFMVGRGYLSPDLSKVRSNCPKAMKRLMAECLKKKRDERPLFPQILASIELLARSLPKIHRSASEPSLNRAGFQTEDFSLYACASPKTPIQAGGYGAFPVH
Structure (SMILES),"efflux ratio at 2 h, 1 µM (BCRP)","Papp at 2 h, 1 µM [1]",pIC50 (A375 cells),"efflux ratio at 2 h, 1 µM (P-gp (MDR1))",pIC50 [2]
"Cc1c(Nc2c(F)ccc(NS(=O)(=O)N3CCC4(CC4)C3)c2Cl)ccc2ncn(C)c(=O)c12 [Example 82, N-(2-chloro-3-((3,5-dimethyl-4-oxo-3,4-dihydroquinazolin-6-yl)amino)-4-fluorophenyl)-5-azaspiro[2.4]heptane-5-sulfonamide trifluoroacetate]",1,13 ×10⁻⁶ cm/s,6.71,1.2,7.16
"Cc1c(Nc2c(F)ccc(NS(=O)(=O)N3CCCCC3)c2Cl)ccc2ncn(C)c(=O)c12 [Example 84, N-(2-chloro-3-((3,5-dimethyl-4-oxo-3,4-dihydroquinazolin-6-yl)amino)-4-fluorophenyl)piperidine-1-sulfonamide]",0.8,18 ×10⁻⁶ cm/s,6.88,0.8,7.28
Cc1c(Nc2c(F)ccc(NS(=O)(=O)N3CC4CC4(C)C3)c2Cl)ccc2ncn(C)c(=O)c12 (centres unmarked) [Example 88],0.6,25 ×10⁻⁶ cm/s,6.69,1.2,7.57
"Cc1c(Nc2c(F)c(F)cc(NS(=O)(=O)N(C)C)c2Cl)ccc2ncn(C)c(=O)c12 [Example 98, N-(2-chloro-3-((3,5-dimethyl-4-oxo-3,4-dihydroquinazolin-6-yl)amino)-4,5-difluorophenyl)-(N,N-dimethyl)-sulfamide]",1.1,31 ×10⁻⁶ cm/s,7.31,1.1,7.70
"Cn1cnc2ccc(Oc3c(F)ccc(NS(=O)(=O)N4CC(F)C4)c3Cl)c(F)c2c1=O [Example 122, N-(2-chloro-4-fluoro-3-((5-fluoro-3-methyl-4-oxo-3,4-dihydroquinazolin-6-yl)oxy)phenyl)-3-fluoroazetidine-1-sulfonamide]",7.8,31 ×10⁻⁶ cm/s,8.52,2.3,8.70
"CCOC1CN(S(=O)(=O)Nc2ccc(F)c(Nc3ccc4ncn(C)c(=O)c4c3Cl)c2Cl)C1 [Example 141, N-(2-chloro-3-((5-chloro-3-methyl-4-oxo-3,4-dihydroquinazolin-6-yl)amino)-4-fluorophenyl)-3-ethoxyazetidine-1-sulfonamide]",2.2,29 ×10⁻⁶ cm/s,7.64,1.7,7.70
"CCOC1CN(S(=O)(=O)Nc2ccc(F)c(Nc3ccc4ncn(C)c(=O)c4c3F)c2Cl)C1 [Example 142, N-(2-chloro-4-fluoro-3-((5-fluoro-3-methyl-4-oxo-3,4-dihydroquinazolin-6-yl)amino)phenyl)-3-ethoxyazetidine-1-sulfonamide]",2.5,21 ×10⁻⁶ cm/s,7.70,3.2,7.62

# Second part, the compound after the results:
"efflux ratio at 2 h, 1 µM (BCRP)","Papp at 2 h, 1 µM [1]",pIC50 (A375 cells),"efflux ratio at 2 h, 1 µM (P-gp (MDR1))",pIC50 [2],Structure (SMILES)
0.9,26 ×10⁻⁶ cm/s,6.75,1.7,7.28,"Cc1c(Nc2c(F)ccc(NS(=O)(=O)N3C[C@H](F)[C@@H](F)C3)c2Cl)ccc2ncn(C)c(=O)c12 (relative stereo) [Example 85, (trans)-N-(2-chloro-3-((3,5-dimethyl-4-oxo-3,4-dihydroquinazolin-6-yl)amino)-4-fluorophenyl)-3,4-difluoropyrrolidine-1-sulfonamide]"
1,28 ×10⁻⁶ cm/s,6.86,1.3,6.95,"Cc1c(Nc2c(F)ccc(NS(=O)(=O)N3CCOCC3)c2Cl)ccc2ncn(C)c(=O)c12 [Example 79, N-(2-chloro-3-((3,5-dimethyl-4-oxo-3,4-dihydroquinazolin-6-yl)amino)-4-fluorophenyl)morpholine-4-sulfonamide]"
0.8,17 ×10⁻⁶ cm/s,6.91,1.5,8.05,Cc1c(Oc2c(F)ccc(NS(=O)(=O)N3CC4CC4C3)c2Cl)ccc2ncn(C)c(=O)c12 (centres unmarked) [Example 91]
1.5,28 ×10⁻⁶ cm/s,7.68,1.6,8.00,"COCC1CN(S(=O)(=O)Nc2ccc(F)c(Oc3ccc4ncn(C)c(=O)c4c3C)c2Cl)C1 [Example 115, N-(2-chloro-3-((3,5-dimethyl-4-oxo-3,4-dihydroquinazolin-6-yl)oxy)-4-fluorophenyl)-3-(methoxymethyl)azetidine-1-sulfonamide]"
2.1,34 ×10⁻⁶ cm/s,7.82,2.7,8.40,"Cc1c(Oc2c(F)ccc(NS(=O)(=O)N3CC(F)C3)c2Cl)ccc2ncn(C)c(=O)c12 [Example 116, N-(2-chloro-3-((3,5-dimethyl-4-oxo-3,4-dihydroquinazolin-6-yl)oxy)-4-fluorophenyl)-3-fluoroazetidine-1-sulfonamide]"
1.5,30 ×10⁻⁶ cm/s,7.64,1.5,7.96,"COC1CN(S(=O)(=O)Nc2ccc(F)c(Oc3ccc4ncn(C)c(=O)c4c3C)c2Cl)C1 [Example 117, N-(2-chloro-3-((3,5-dimethyl-4-oxo-3,4-dihydroquinazolin-6-yl)oxy)-4-fluorophenyl)-3-methoxyazetidine-1-sulfonamide]"
5.4,32 ×10⁻⁶ cm/s,8.30,2.5,8.40,"COC1CN(S(=O)(=O)Nc2ccc(F)c(Oc3ccc4ncn(C)c(=O)c4c3F)c2Cl)C1 [Example 123, N-(2-chloro-4-fluoro-3-((5-fluoro-3-methyl-4-oxo-3,4-dihydroquinazolin-6-yl)oxy)phenyl)-3-methoxyazetidine-1-sulfonamide]"
1.5,36 ×10⁻⁶ cm/s,7.43,2,8.10,"Cc1c(Nc2c(F)ccc(NS(=O)(=O)N3CC(COC(F)F)C3)c2Cl)ccc2ncn(C)c(=O)c12 [Example 137, N-(2-chloro-3-((3,5-dimethyl-4-oxo-3,4-dihydroquinazolin-6-yl)amino)-4-fluorophenyl)-3-((difluoromethoxy)methyl)azetidine-1-sulfonamide trifluoroacetate]"
0.8,48 ×10⁻⁶ cm/s,7.28,1.2,7.80,"COCC1(C)CN(S(=O)(=O)Nc2ccc(F)c(Nc3ccc4ncn(C)c(=O)c4c3C)c2Cl)C1 [Example 140, N-(2-chloro-3-((3,5-dimethyl-4-oxo-3,4-dihydroquinazolin-6-yl)amino)-4-fluorophenyl)-3-(methoxymethyl)-3-methylazetidine-1-sulfonamide trifluoroacetate]"
